From the supplement of paper PMC10307832

What was measured:
Experiment in all cases: relative viability (nuclei count vs DMSO), 5 days (fraction); higher = more cells survive
BI-D1870 + OSI-027 = compound: CC(C)CCN1c2nc(Nc3cc(F)c(O)c(F)c3)ncc2N(C)C(=O)C1C [BI-D1870] + COc1cccc2cc(-c3nc([C@H]4CC[C@H](C(=O)O)CC4)n4ncnc(N)c34)[nH]c12 [OSI-027] (partner 0.5 µM)
Procedure, shortened: (§1)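 After 5 days of treatment, lung cancer cells in 1536-well plates were fixed and stained in a single step (final 0.05% Triton X-100, 1% formaldehyde, 1 ug/ml Hoechst) and their nuclei counted on 4× images. Treatment had been applied by pin tool the day after seeding as one drug alone or as a fixed anchor-drug dose with five library-drug doses (not always all listed) in √10 steps. Relative viability is the nuclei count of treated wells divided by that of vehicle wells, and values are medians of duplicate plates.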

BI-D1870 + Vorinostat = compound: CC(C)CCN1c2nc(Nc3cc(F)c(O)c(F)c3)ncc2N(C)C(=O)C1C [BI-D1870] + O=C(CCCCCCC(=O)Nc1ccccc1)NO [Vorinostat] (partner 1 µM)
Procedure, shortened: as §1

Zebularine + Navitoclax = compound: O=c1ncccn1[C@@H]1O[C@H](CO)[C@@H](O)[C@H]1O [Zebularine] + CC1(C)CCC(c2ccc(Cl)cc2)=C(CN2CCN(c3ccc(C(=O)NS(=O)(=O)c4ccc(N[C@H](CCN5CCOCC5)CSc5ccccc5)c(S(=O)(=O)C(F)(F)F)c4)cc3)CC2)C1 [Navitoclax] (partner 0.5 µM)
Procedure, shortened: as §1

Zebularine + Linsitinib = compound: O=c1ncccn1[C@@H]1O[C@H](CO)[C@@H](O)[C@H]1O [Zebularine] + C[C@]1(O)C[C@@H](c2nc(-c3ccc4ccc(-c5ccccc5)nc4c3)c3c(N)nccn32)C1 [Linsitinib] (partner 1 µM)
Procedure, shortened: as §1

Cell Line	relative viability (BI-D1870 + OSI-027; first compound 0.04 µM)	relative viability (BI-D1870 + OSI-027; first compound 0.1265 µM)	relative viability (BI-D1870 + OSI-027; first compound 0.4 µM)	relative viability (BI-D1870 + OSI-027; first compound 1.265 µM)	relative viability (BI-D1870 + OSI-027; first compound 4 µM)	relative viability (BI-D1870 + Vorinostat; first compound 0.04 µM)	relative viability (BI-D1870 + Vorinostat; first compound 0.1265 µM)	relative viability (BI-D1870 + Vorinostat; first compound 0.4 µM)	relative viability (BI-D1870 + Vorinostat; first compound 1.265 µM)	relative viability (BI-D1870 + Vorinostat; first compound 4 µM)	relative viability (Zebularine + Navitoclax; first compound 1 µM)	relative viability (Zebularine + Navitoclax; first compound 3.162 µM)	relative viability (Zebularine + Navitoclax; first compound 31.62 µM)	relative viability (Zebularine + Navitoclax; first compound 100 µM)	relative viability (Zebularine + Linsitinib; first compound 1 µM)	relative viability (Zebularine + Linsitinib; first compound 3.162 µM)	relative viability (Zebularine + Linsitinib; first compound 31.62 µM)	relative viability (Zebularine + Linsitinib; first compound 100 µM)	relative viability (Zebularine + Navitoclax; first compound 10 µM)	relative viability (Zebularine + Linsitinib; first compound 10 µM)
NCI-H1651	0.738	0.608	0.668	0.753	0.63	0.557	0.536	0.472	0.623	0.451	1.22	1.03	0.971	0.506	1	0.893	0.904	0.465	–	–
NCI-H1666	0.943	0.808	0.849	0.89	0.807	1.03	1.01	0.942	0.956	1.02	0.98	1.05	1.08	0.575	0.748	0.862	0.804	0.562	0.857	0.675
NCI-H1734	0.569	0.541	0.567	0.629	0.472	0.805	0.744	0.78	0.779	0.617	0.926	0.769	0.475	0.22	0.917	0.87	0.532	0.333	0.513	0.526
NCI-H1755	0.705	0.714	0.651	0.847	0.683	0.938	0.738	0.705	0.849	0.788	1.14	1.04	1.01	0.444	0.722	1.01	1	0.506	0.773	0.844
NCI-H1793	0.293	0.216	0.22	0.266	0.224	0.914	0.718	0.615	1.04	0.606	0.403	0.448	0.285	0.208	0.882	0.978	0.464	0.197	0.318	0.365
NCI-H1915	0.665	0.516	0.591	0.476	0.411	0.55	0.484	0.513	0.489	0.436	0.816	0.769	0.872	0.771	1.09	1.08	1.09	0.94	0.565	1.07
NCI-H1944	0.514	0.376	0.366	0.475	0.426	0.894	0.5	0.484	0.57	0.405	1.11	0.984	0.9	0.669	1.34	1.14	1.19	0.784	0.705	0.979
NCI-H1975	0.755	0.58	0.54	0.559	0.457	0.747	0.617	0.686	0.664	0.425	1.13	1.08	0.575	0.229	1.01	0.861	0.456	0.271	0.64	0.582
NCI-H1993	0.481	0.511	0.53	0.537	0.54	0.763	0.689	0.767	1.1	0.631	0.946	0.946	1.02	0.754	0.775	0.637	0.795	0.657	–	–
NCI-H2009	0.742	0.571	0.615	0.559	0.255	0.776	0.629	0.76	0.599	0.461	1.12	1.13	0.876	0.358	1.17	1.15	0.984	0.386	0.951	1.03
NCI-H2023	0.456	0.298	0.323	0.319	0.223	0.795	0.507	0.571	0.643	0.457	1.14	1.04	0.924	0.247	0.664	0.689	0.63	0.303	0.851	0.604
NCI-H2085	0.745	0.6	0.674	0.602	0.337	0.828	0.733	0.709	0.781	0.509	1.19	1.17	1.08	0.573	1.18	0.878	0.887	0.428	0.868	0.76
NCI-H2087	0.733	0.516	0.58	0.638	0.392	0.634	0.595	0.96	0.92	0.849	1.16	0.885	0.767	0.37	1.11	1.09	0.67	0.29	0.488	0.501
NCI-H2126	0.74	0.64	0.671	0.716	0.58	0.802	0.718	0.719	0.735	0.578	0.862	0.813	0.735	0.509	0.743	0.644	0.624	0.478	0.766	0.668
NCI-H2228	0.659	0.533	0.654	0.515	0.257	0.889	0.512	0.824	0.959	0.32	1.46	0.843	0.722	0.191	0.616	0.666	0.509	0.409	0.655	0.514
NCI-H2347	0.422	0.458	0.374	0.476	0.478	0.524	0.677	0.597	0.776	0.545	0.836	0.81	0.475	0.369	1.04	0.99	0.724	0.478	0.563	0.854
